Measured values reported in patent US20210138077A1, “SELECTIVE DRUG RELEASE FROM INTERNALIZED CONJUGATES OF BIOLOGICALLY ACTIVE COMPOUNDS” (Seagen Inc., priority 2019, published 2021).
Non-standard residues stand in square brackets, D forms with d. No end group written: not given here. Met(O) = CS(=O)CC[C@H](N)C(=O)O; Cit = NC(=O)NCCC[C@H](N)C(=O)O

Columns and labels:
[1] = system: tumor tissue homogenates derived from four mouse xenograft models (HPAF-II, Ramos, SK-Mel-5, SU-DHL-4); test: Fluorescence assay of tripeptide library: proteolysis by tumor tissue homogenate; format: biochemical; settings: for Normalized Tumor Tissue / Normalized Tumor: normalized fluorescence; for Normalized Tumor Tissue: averaged across 4 tumor homogenates (HPAF-II, Ramos, SK-Mel-5, SU-DHL-4); for Normalized Tumor: averaged across 4 tumor homogenates
Experimental: (§1) Fluorescence assay. To a 384 well plate was added a mixture of tumor or normal tissue homogenate and citrate buffer (100 mM, pH 4.5; 9 μL) followed by a fluorescently labelled library compound (1 μL; dissolved in 50% MeCN). The reaction was incubated at 37° C. and fluorescence (330 nm excitation, 450 nm emission) was detected several times over a 6-hr. period. The fluorescence fold change was determined by dividing the fluorescence value at each time point with the background fluorescence when no homogenate was added.
(§2) Tissue Homogenization. Normal tissue or tumor tissue from mouse xenografts were suspended in buffer (50 mM Tris, 150 mM KCl, pH 7.0) and added to a tube containing Matrix D lysing beads (mpbio). The tissue was homogenized with a Precellys™ 24 homogenizer. The homogenized sample was centrifuged at 1000×g for 10 min and the resulting supernatant was collected then frozen at −80° C. until further use.
(§3) The library members were synthesized on cellulose support according to the method by Hilpert, K. et al. in “Peptide arrays on cellulose support: SPOT synthesis, a time and cost efficient method for synthesis of large numbers of peptides in a parallel and addressable fashion”, Nature Protocols (2007) 2(6): 1333-1349, the method of which is specifically incorporated by reference herein, with one important modification. That modification uses laser-perforated cellulose paper so that synthesis of each library member occurs with a clearly defined circular disc. After SPOT synthesis, each circular area, which separately contains a discrete library member, is punched out by a multichannel pipette into individual wells of a microtiter plate. The microtiter plate is then placed into an ammonia chamber to cleave the tripeptide containing model compounds from the cellulose discs. The cleaved compounds were then transferred to a fresh microtiter plate after solubilizing each into 50% aqueous acetonitrile. The contents of the wells were then assessed for susceptibility to proteolysis by tumor tissue homogenate in comparison to a comparator peptide-based drug linker compound having the dipeptide val-cit, which is replaced by the -[P1]-[P2]-[P3]-tripeptides in the library of drug linker compounds, by measuring the fluorescence found in each of the wells of the library after contacting with tumor or normal tissue homogenate and dividing it by the fluorescence found for tumor or normal tissue homogenate cleavage of the comparator dipeptide-containing drug linker compound.
The normalized fluorescence value for tumor homogenate proteolysis is an averaged value for tumor tissue homogenates derived from four mouse xenograft models. Calculation of those normalized values are described following Table 1A.
(§4) A normalized fluorescence value is calculated by dividing the fluorescence value at the final time point (275-315 min) from addition of a tissue homogenate by the fluorescence value when no tissue homogenate was added. That value was then normalized for each peptide in each homogenate by dividing it by the average value for that homogenate. […] The normalized tumor tissue values of Table 1 were then determined by averaging the normalized fluorescence value for each peptide across all 4 cancer homogenates that were tested. Those tumor homogenates were derived from xenograft models for HPAF-II (Nude mouse), Ramos (SCID mouse), SK-Mel-5 (Nude mouse) and SU-DHL-4 (SCID mouse). The normalized normal tissue values of Table 1 were similarly calculated using homogenized bone marrow. The Tumor/Normal ratios of Table 1A were determined by dividing the normalized tumor tissue values by the normalized normal tissue values.

[2] = system: normal human bone marrow homogenate; test: Fluorescence assay of tripeptide library: proteolysis by normal tissue homogenate; format: biochemical; settings: for Normalized Normal Tissue: Table 1A, normalized fluorescence fold change at final time point (275-315 min), pH 4.5, 37° C.; for Normalized Normal: Table 1B, normalized fluorescence
Experimental: as §1, §2, §3
The normalized normal tissue fluorescence values are from proteolysis by normal human bone marrow. Human bone marrow was chosen as the normal tissue because it is the site of an adverse event (neutropenia) that has been associated with administering to a human subject in need thereof an effective amount of an Antibody Drug Conjugate having drug linker moieties derived from the Drug Linker compound m-val-cit-PABC-MMAE.
as §4

[3] = Table 1A, normalized tumor tissue value divided by normalized normal tissue value
[4] = Table 1B, normalized tumor value divided by normalized normal value

| Substance | Normalized Tumor Tissue ([1]; Table 1A) | Tumor/Normal [1, 3] | Normalized Normal Tissue [2] | Normalized Tumor ([1]; Table 1B) | Tumor/Normal [1, 4] | Normalized Normal [2] |
| --- | --- | --- | --- | --- | --- | --- |
| [dL]-Leu-Glu | 3.45 | 3.09 | 1.12 |  |  |  |
| Thr-Cit-Cit | 2.26 | 2.53 | 0.89 |  |  |  |
| [dL]-Glu-Lys |  |  |  | 1.06 | 1.71 | 0.62 |
| [dL]-Ala-Lys |  |  |  | 1.16 | 1.70 | 0.68 |
| Pro-Ala-[Cit] | 3.03 | 2.84 | 1.07 |  |  |  |
| Pro-Glu-Ala |  |  |  | 1.28 | 1.84 | 0.70 |
| Cit-Glu-Cit | 3.16 | 2.61 | 1.21 |  |  |  |
| [dL]-Phe-Glu | 2.27 | 2.55 | 0.89 |  |  |  |
| Pro-Lys-Glu | 1.88 | 2.59 | 0.72 |  |  |  |
| Pro-Glu-Glu | 1.87 | 2.58 | 0.73 |  |  |  |
| [dL]-Leu-Lys | 2.20 | 2.54 | 0.87 |  |  |  |
| [dL]-[Cit]-Glu |  |  |  | 1.07 | 1.67 | 0.64 |
| Lys-Glu-[Met(O)] |  |  |  | 1.16 | 1.66 | 0.70 |
| Pro-Ala-Glu | 2.48 | 3.16 | 0.78 |  |  |  |
| Pro-[Cit]-Glu | 2.27 | 2.68 | 0.85 |  |  |  |
| [Cit]-Glu-Glu | 2.44 | 2.53 | 0.97 |  |  |  |
| Pro-Glu-[Cit] | 2.35 | 2.77 | 0.85 |  |  |  |
| Glu-Glu-[Cit] | 3.14 | 2.57 | 1.22 |  |  |  |
| Pro-Glu-Lys | 1.85 | 2.57 | 0.72 |  |  |  |
| Pro-Cit-Cit | 2.54 | 2.67 | 0.95 |  |  |  |
| Ala-Cit-Cit | 2.58 | 2.53 | 1.02 |  |  |  |
| Glu-Ala-Glu | 2.66 | 2.53 | 1.05 |  |  |  |
| Cit-Cit-Cit | 2.82 | 2.52 | 1.12 |  |  |  |
| [dL]-Leu-[Met(O)] | 1.70 | 2.58 | 0.66 | 1.70 | 2.58 | 0.66 |
| DLeu-Leu-Cit | 3.70 | 2.70 | 1.37 |  |  |  |
